Data: article PMC8583417, “Evaluation of the Antimicrobial Efficacy of N-Acetyl-L-Cysteine, Rhamnolipids, and Usnic Acid—Novel Approaches to Fight Food-Borne Pathogens” (International Journal of Molecular Sciences, 2021)

How the values were obtained:
L. monocytogenes 149 = assay: CLSM analysis, biofilm removal (preformed biofilm); format: cell-based, Listeria monocytogenes; conditions: 20 h exposure, mean ± SD; for Thickness (µm) MICBM80: substance at its MIC; for Thickness (µm) subCBM80: substance at subinhibitory concentration
Description: (§1) Biofilm prevention and removal analyses were performed using previously determined minimum inhibitory and subinhibitory concentrations for metabolic activity (MICBM80, subCBM80; MICMPB80, subCMPB80) of NAC, RLs, and UA specific for each tested strain. Selected concentrations were used to evaluate the inhibition of biofilm formation (biofilm prevention) and the reduction in previously formed biofilms (biofilm removal) for the same set of microorganisms, with the exception of S. Infantis, which was excluded from the analysis due to its inability to form biofilm in the selected microtiter plate. Biofilm prevention and removal were observed using CLSM with specific staining to distinguish between live and membrane-compromised cells. Images were analyzed to evaluate (i). the total volume of the biomass, (ii). ratios of live and membrane-compromised cells, and (iii). to calculate biofilm volume reduction for individual organisms after the respective treatment types. The total biofilm volume was normalized by the area of the well and expressed as an average biofilm thickness. Complete data are provided in Supplementary Materials (Tables S1–S8).
(§2) At first, bacterial suspensions were cultivated in microtiter plates to produce overnight biofilms (18 h). […] cells were then washed out, and the remaining biofilms were further cultivated for an additional 20 h with selected compounds. Following biofilm cultivation, biomass was observed using CLSM with live/membrane-compromised cell staining. Biomass images from biofilm removal treatments were similar to results from biofilm prevention, where biomass was highly diversified across the bacterial species and strains. Visually, biomass images were fairly consistent within the quadruplicates for each tested organism. Non-treated biofilms of S. aureus contained consistent biomass spread across the well (S. aureus 816) or grown around the edges (S. aureus 1241). […] PI staining identified membrane-compromised cells spread across S. aureus 816 biomass and incorporated in the edge of biomass and/or in the central part of the well (Figure 4B,C). […] Membrane-compromised cells appeared contained around the edges (S. aureus 1241), disturbed across the well (in both strains of L. monocytogenes), or in separated biomass in the central part of the well (in both strains of E. coli when treated with the subinhibitory concentration of RLs) (Figure 4D,E).
(§3) For both inhibition and reduction of biofilms, overnight cultures from BHI were diluted in TSB + 1% Glc to reach an absorbance of 0.08 to 0.1 at 625 nm. The inoculum (150 µL) was transferred into wells of the 96-well flat-bottomed Ibidiμ-Plate (Ibidi, Gräfelfing, Germany) and mixed with 150 µL of each of the three tested substances in technical quadruplicates, followed by incubation at 37 °C for 24 h. Simultaneously, the prepared bacterial suspensions were inoculated to an additional microtiter plate (200 µL) and allowed to form biofilm overnight (18 h at 37 °C). After the incubation, the content of the well was drained off, and 200 µL of each of the three tested substances was added to the plate, which was then incubated for an additional 20 h. The used concentrations of the substances represented the subinhibitory and minimum inhibitory concentrations for metabolic activity (subCBM80, MICBM80; subCMPB80, MICMPB80). Both setups contained a positive control of the bacterial growth (inoculum mixed with sterile TSB + 1% Glc medium) and a control monitoring microbial contamination (sterile medium). Non-treated wells were used as a positive control for comparison between non-treated and treated biofilm mass.
(§4) Prior to the imaging, the wells were stained with the LIVE/DEAD® BacLight™ Bacterial Viability Kit (Thermo Fisher Scientific, MA, USA) following the manufacturer’s guidelines and Drago et al.. […]

L. monocytogenes 164 = assay: CLSM analysis, biofilm removal (preformed biofilm); format: cell-based, Listeria monocytogenes; conditions: for Thickness (µm) MICBM80: substance at its MIC
Description: as §1, §2, §3, §4

[1] = system: S. Enteritidis ATCC 13076; assay: CLSM analysis, biofilm removal (preformed biofilm); format: cell-based, Salmonella enterica Enteritidis; conditions: 20 h exposure, mean ± SD; for Thickness (µm) subCBM80: substance at subinhibitory concentration
Description: as §1
At first, bacterial suspensions were cultivated in microtiter plates to produce overnight biofilms (18 h). […] cells were then washed out, and the remaining biofilms were further cultivated for an additional 20 h with selected compounds. Following biofilm cultivation, biomass was observed using CLSM with live/membrane-compromised cell staining. Biomass images from biofilm removal treatments were similar to results from biofilm prevention, where biomass was highly diversified across the bacterial species and strains. Visually, biomass images were fairly consistent within the quadruplicates for each tested organism. Non-treated biofilms of S. aureus contained consistent biomass spread across the well (S. aureus 816) or grown around the edges (S. aureus 1241). […]
For both inhibition and reduction of biofilms, overnight cultures from BHI were diluted in TSB + 1% Glc to reach an absorbance of 0.08 to 0.1 at 625 nm. […]

E. coli 693/17 = assay: CLSM analysis, biofilm prevention; format: cell-based, Escherichia coli; conditions: 24 h exposure; for Thickness (µm) subCBM80: substance at subinhibitory concentration, mean ± SD
Description: as §1, §3
(§5) Prior to the imaging, the wells were stained with the LIVE/DEAD® BacLight™ Bacterial Viability Kit (Thermo Fisher Scientific, MA, USA) following the manufacturer’s guidelines and Drago et al.. Briefly, equal volumes of SYTO® 9 and propidium iodide were combined with the sterile distilled water to reach a final concentration of […]. The biofilm mass was stained using 300 µL of the staining solution per well followed by incubation at 37 °C in the dark for 15 min. Stained wells were washed once with sterile distilled water, which was then added to each well (300 µL). Images were acquired with an inverted Leica SP5 CLSM using a 1.25× dry objective (WD 3.7 mm, Z-resolution 27 µm, up to 24 Z-stacks per well) to visualize an entire well. Samples were kept at the cultivation conditions (37 °C, 5% CO2, 90% humidity) with an OkoLabs stage top environmental chamber (Oko Labs, PA, USA). Fluorophore excitation lasers and emission bandwidths were as follows: SYTO® 9 (ex/em 485/498 nm) 488 nm excitation, 495 to 550 nm emission collection; propidium iodide (ex/em 535/617 nm) 561 nm excitation, 595 to 650 nm emission collection. The laser beam scanned the visual field at a frequency of 600 Hz. The wells were captured in snapshots of 1024 × 1024 pixels representing the area of 153.76 mm^2.
(§6) All collected images were statistically evaluated to quantify biovolume utilizing the surface estimation procedure described in Parker et al.. […]

E. coli 683/17 = assay: CLSM analysis, biofilm prevention; format: cell-based, Escherichia coli; conditions: 24 h exposure; for Thickness (µm) subCBM80: substance at subinhibitory concentration, mean ± SD
Description: as §1, §3, §5, §6

[2] = preformed biofilm, 20 h exposure, mean ± SD
[3] = substance at its MICBM80, mean ± SD

Row | Compound | Thickness (µm) MICBM80 (L. monocytogenes 149) [µm] | Thickness (µm) subCBM80 (L. monocytogenes 149) [µm] | proportion of membrane-compromised cells (L. monocytogenes 164; 20 h, MIC and subinhibitory concentration) | Thickness (µm) MICBM80 (L. monocytogenes 164; [2]) [µm] | Thickness (µm) subCBM80 (L. monocytogenes 164; preformed biofilm, 20 h exposure, substance at subinhibitory concentration, mean ± SD) [µm] | Thickness (µm) MICBM80 ([1]; substance at its MIC) [µm] | Thickness (µm) subCBM80 [1] [µm] | Thickness (µm) MICBM80 (E. coli 693/17; [3]) [µm] | Thickness (µm) subCBM80 (E. coli 693/17) [µm] | Thickness (µm) MICBM80 (E. coli 683/17; [3]) [µm] | Thickness (µm) subCBM80 (E. coli 683/17) [µm]
1 | CC(=O)N[C@@H](CS)C(=O)O [NAC, N-Acetyl-L-cysteine] | 338 ± 85.7 | 332 ± 51.2 | up to 20% | 345 ± 62 | 335 ± 23.1 | 212 ± 16.6 | 229 ± 54.9 | 273 ± 40.8 | 181 ± 21.9 | 271 ± 50.7 | 229 ± 9.9
2 | CC(=O)c1c(O)c(C)c(O)c2c1OC1=CC(=O)C(C(C)=O)C(=O)C12C (single isomer, unassigned; (+)) [UA, (+)-usnic acid] | 317 ± 62.3 | 276 ± 26.8 |  | 440 ± 60.8 |  |  | 203 ± 19.8 |  | 256 ± 12.6 |  | 269 ± 28.1
